{"source": "patent US20060074100A1", "about": "“Histone deacetylase inhibitors for the treatment of ocular neovascular or edematous disorders and diseases” (priority 2002, published 2006)", "origin": "cited, not measured here", "key": {"cancer cell [1]": {"tested_on": "cancer cell"}, "cancer cell [2]": {"tested_on": "cancer cell", "conditions": "in vitro"}, "tumors": {"tested_on": "tumors", "conditions": "animal models"}, "[3]": {"conditions": "phase I clinical trials"}, "[4]": {"tested_on": "corneal neovascularization", "conditions": "in combination with a beta cyclodextrin"}}, "data": [{"smiles": "O=C(CCCCCCC(=O)Nc1ccccc1)NO", "note": "[SAHA, suberoylanilide hydroxamic acid]", "values": [{"measurement": "induction of cancer cell differentiation", "setting": "cancer cell [1]", "result": "potent inducer of cancer cell differentiation"}, {"measurement": "cancer cell growth", "setting": "cancer cell [2]", "result": "arrest cancer cell growth in vitro"}, {"measurement": "tumor size", "setting": "tumors", "result": "shrink tumors in animal models"}, {"measurement": "dose-limiting toxicity", "setting": "[3]", "result": "almost no dose-limiting toxicity"}, {"measurement": "suppression of white blood cell production", "setting": "[3]", "result": "no suppression of white blood cell production"}]}, {"smiles": "C[C@@H]1C[C@H]2[C@@H]3C[C@H](F)C4=CC(=O)CC[C@]4(C)C3=CC[C@]2(C)[C@@]1(O)C(=O)CO", "note": "[U-72,745G]", "values": [{"measurement": "inhibition of corneal neovascularization", "setting": "[4]", "result": "inhibit corneal neovascularization"}]}, {"smiles": "C[C@]12CCC(=O)C=C1CC[C@@H]1[C@@H]2[C@@H](O)C[C@@]2(C)[C@H]1CC[C@]2(O)C(=O)CO", "note": "[hydrocortisone]", "values": [{"measurement": "inhibition of corneal neovascularization", "setting": "[4]", "result": "inhibit corneal neovascularization"}]}, {"smiles": "C[C@]12CC[C@@H](O)C[C@H]1CC[C@@H]1[C@@H]2CC[C@@]2(C)[C@H]1CC[C@]2(O)C(=O)CO", "note": "[tetrahydrocortisol-S]", "values": [{"measurement": "inhibition of corneal neovascularization", "setting": "[4]", "result": "inhibit corneal neovascularization"}]}]}
